Entries after “also recorded” stand apart in the source; their conditions may differ.
Columns and labels:
Type in all cases: cell-based
[1] = test system: PC-3 cells; assay: Cell viability (AlamarBlue), PC-3; conditions: 50 μM, 24 hours
Procedure: Cell viability was assessed after 24 hours of incubation with the test compounds initially at three different concentrations to establish their dose-responsiveness, considering 50 μM as the highest concentration (FIG. 10).
For cell viability (end point) assays LNCaP, PC-3 and PWR-1E cells were seeded at 2.5*10^4/ml density in 200 μl volume of a 96-well plate in triplicate and incubated for 24 hours prior testing. Test compounds were included at different concentrations to achieve a final concentration of 0.5% DMSO in each well. Effect of 0.5% DMSO on cell-viability was also evaluated. Cell viability was assessed after 24 hours of treatment using 10% Alamar Blue reagent (Invitrogen) for each well. Cell viability was monitored by the reduction of resazurin, a blue, cell-permeable and non-toxic compound, to resorufin, a red and highly fluorescent product. Viable cells continuously convert resazurin to resorufin, increasing the overall colour and fluorescence of the media surrounding cells. Fluorescence intensity can be quantitatively determined with a fluorescence microplate reader at excitation/emission 544 nm/590 nm (Spectramax Gemini). For hormone dependent cell proliferation assays in androgen deprived LNCaP cells, cells were seeded at 2*10^4 cells/ml in a 24-well plate in triplicate. […] A control for the vehicle was included to ensure no effect on viability could be detected. […]

[2] = test system: PSA expression in LNCaP cells; assay: PSA ELISA, secreted PSA in LNCaP cells; conditions: bell-shaped effect
Procedure: (§1) To investigate compounds effect on PSA expression, a common biomarker for prostate cancer, we utilized a human PSA ELISA assay.
(§2) For cell viability (end point) assays LNCaP, PC-3 and PWR-1E cells were seeded at 2.5*10^4/ml density in 200 μl volume of a 96-well plate in triplicate and incubated for 24 hours prior testing. Test compounds were included at different concentrations to achieve a final concentration of 0.5% DMSO in each well. Effect of 0.5% DMSO on cell-viability was also evaluated. Cell viability was assessed after 24 hours of treatment using 10% Alamar Blue reagent (Invitrogen) for each well. Cell viability was monitored by the reduction of resazurin, a blue, cell-permeable and non-toxic compound, to resorufin, a red and highly fluorescent product. Viable cells continuously convert resazurin to resorufin, increasing the overall colour and fluorescence of the media surrounding cells. Fluorescence intensity can be quantitatively determined with a fluorescence microplate reader at excitation/emission 544 nm/590 nm (Spectramax Gemini). For hormone dependent cell proliferation assays in androgen deprived LNCaP cells, cells were seeded at 2*10^4 cells/ml in a 24-well plate in triplicate. Cells were plated in phenol red free RPMI Glutamax (Invitrogen) supplemented with 10% charcoal-stripped FBS to deplete endogenous steroids 48 hours prior the assay as described in previous reports. […] Cells were treated with different concentrations of test compounds with or without 0.1 nM DHT to achieve a final concentration of 0.1% DMSO in each well. A control for the vehicle was included to ensure no effect on viability could be detected. Media and treatments were replaced every second day, after washing the cells twice with 1×PBS. Supernatants were collected after five days for secreted PSA levels evaluation and cell proliferation was assessed for the same plate using Alamar Blue in order to exclude non-specific effects due to toxicity issues.
Secreted levels of prostate specific antigen were evaluated with a commercially available kit (Quantikine Human Kallikrein 3/PSA Immunoassay, R&D systems). The assay was performed following manufacturer's guidelines. In brief, 50 μl of standards and cell culture samples were added to pre-coated wells containing assay diluent RD1W (R&D systems) and incubated for two hours at room temperature. […] Wells were washed and treated with colored substrate (Tetramethylbenzidine) for an additional 30 minutes, after which 50 μl of stop solution (Sulphuric Acid 2N) was added per well and absorbance (450 nm with correction at 540 nm) was read with a plate reader within 30 minutes (Versamax).

[3] = test system: PSA expression in 22Rv1 cells; assay: PSA ELISA, secreted PSA in 22Rv1 cells; conditions: 22Rv1
Procedure: as §1
(§3) We repeated the same experiment in 22Rv1 cell line.
Secreted levels of prostate specific antigen were evaluated with a commercially available kit (Quantikine Human Kallikrein 3/PSA Immunoassay, R&D systems). The assay was performed following manufacturer's guidelines. In brief, 50 μl of standards and cell culture samples were added to pre-coated wells containing assay diluent RD1W (R&D systems) and incubated for two hours at room temperature. Unbound material was washed several times and 200 μl of Horseradish Peroxidase (HRP) labeled PSA conjugate antibody was added to each well and further incubated for two hours at room temperature. Wells were washed and treated with colored substrate (Tetramethylbenzidine) for an additional 30 minutes, after which 50 μl of stop solution (Sulphuric Acid 2N) was added per well and absorbance (450 nm with correction at 540 nm) was read with a plate reader within 30 minutes (Versamax).

[4] = test system: LNCaP cells; assay: LNCaP cell proliferation assay (androgen deprived, AlamarBlue); conditions: LNCaP, androgen deprived media, no DHT
Procedure: To determine the optimal DHT concentration and length of treatment required for cell proliferation assays, we tested a range of DHT concentrations in 0.1% DMSO for 5 or 7 days in LNCaP cells cultured in FBS stripped phenol red free media. […] Media and treatments were replaced every second incubation day (FIGS. 12 A and B)
as §2

[5] = test system: 22Rv1 cells; assay: 22Rv1 cell proliferation assay
Procedure: Thus, inhibition on cell proliferation by the compounds could not be evaluated (FIG. 14)
as §3
For cell viability (end point) assays LNCaP, PC-3 and PWR-1E cells were seeded at 2.5*10^4/ml density in 200 μl volume of a 96-well plate in triplicate and incubated for 24 hours prior testing. Test compounds were included at different concentrations to achieve a final concentration of 0.5% DMSO in each well. Effect of 0.5% DMSO on cell-viability was also evaluated. Cell viability was assessed after 24 hours of treatment using 10% Alamar Blue reagent (Invitrogen) for each well. Cell viability was monitored by the reduction of resazurin, a blue, cell-permeable and non-toxic compound, to resorufin, a red and highly fluorescent product. Viable cells continuously convert resazurin to resorufin, increasing the overall colour and fluorescence of the media surrounding cells. Fluorescence intensity can be quantitatively determined with a fluorescence microplate reader at excitation/emission 544 nm/590 nm (Spectramax Gemini). […] A control for the vehicle was included to ensure no effect on viability could be detected. […] Supernatants were collected after five days for secreted PSA levels evaluation and cell proliferation was assessed for the same plate using Alamar Blue in order to exclude non-specific effects due to toxicity issues.

In the case of `CC(=O)O[C@]1(C(C)=O)CC[C@H]2[C@@H]3C=C(Cl)C4=CC(=O)[C@@H]5C[C@@H]5[C@]4(C)[C@H]3CC[C@@]21C` [CPA, Cyproterone Acetate, reference compound], the “effect on cell viability” value [1] is reported as “minor effect”, the “maximal stimulatory concentration for PSA secretion” value [2] is reported as 1 µM and the “PSA expression in absence of androgens” value [3] is reported as “remarkable increase”. The “cell proliferation in absence of DHT / androgens” value [4] was “induces cell proliferation; also recorded: stimulates cell proliferation” and the “cell proliferation in absence of androgens” value [5] was “couldn't see a remarkable increase”.
